Test results reported in paper PMC7403315, “Cyclic peptide FXII inhibitor provides safe anticoagulation in a thrombosis model and in artificial lungs” (Nature Communications, 2020).
Where “and” joins values, the source holds several entries; their conditions need not be identical. Equal values may be shown once. Starred links: 1 amine or outer side, 2 acyl side, 3 side chain; linkers in the order of their positions; H or OH if unused. Positions of bridges follow the written chain, without caps; N, C: chain ends. Non-standard residues stand in square brackets, D forms with d. Residues, ends and D or L forms follow the SMILES beside them. TATA = O=C(CC[*:1])N1CN(C(=O)CC[*:2])CN(C(=O)CC[*:3])C1; Phe(4-F) = N[C@@H](Cc1ccc(F)cc1)C(=O)O; β3hR = N=C(N)NCCC[C@H](N)CC(=O)O

Key:
tPA = molecular target: T1, tPA (Homo sapiens, UniProt P00750); experiment: Specificity profiling, residual protease activity; format: biochemical
T1 construct: purchased Molecular Innovations
T1 sequence (P00750 36-562): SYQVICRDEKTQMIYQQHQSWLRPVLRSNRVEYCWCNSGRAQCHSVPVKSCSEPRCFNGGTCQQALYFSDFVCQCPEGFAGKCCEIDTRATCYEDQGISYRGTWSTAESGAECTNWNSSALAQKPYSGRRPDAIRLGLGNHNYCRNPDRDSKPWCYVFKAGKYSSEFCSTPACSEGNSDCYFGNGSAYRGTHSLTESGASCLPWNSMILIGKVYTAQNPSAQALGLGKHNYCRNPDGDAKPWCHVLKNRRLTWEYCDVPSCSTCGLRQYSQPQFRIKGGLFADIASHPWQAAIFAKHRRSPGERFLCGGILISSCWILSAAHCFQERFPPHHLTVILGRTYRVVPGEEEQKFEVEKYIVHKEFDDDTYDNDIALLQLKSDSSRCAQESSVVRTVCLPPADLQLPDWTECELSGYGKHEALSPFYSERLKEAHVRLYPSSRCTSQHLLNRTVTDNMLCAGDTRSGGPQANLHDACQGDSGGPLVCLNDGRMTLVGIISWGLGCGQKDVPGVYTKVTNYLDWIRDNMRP
Procedure: (§1) Protease inhibition assays
(§2) The inhibitory activity of peptides was determined by measuring the residual protease activity with a fluorogenic substrate. The assay was performed in buffer containing 10 mM Tris-Cl, pH […]
(§3) 1% (v/v) DMSO in a volume of 150 µl. […]
(§4) HFXIIAB) were used at final concentrations of 0.4 nM. The reaction was pipetted as follows: 50 µl of bicyclic peptide in assay buffer were added to 50 µl of FXIIa in assay buffer and incubated for 10 minutes at 25°C before 50 µl of 150 µM fluorogenic substrate in assay buffer were added to measure the residual protease activity with an Infinite M200Pro fluorescence plate reader (excitation at 368 nm, emission at 467 nm; Tecan) for a period of 30 minutes with a read every minute at 25°C. The Tecan software i-control (version 1.1) was used for data analysis. Stock solutions of 1 mM bicyclic peptide were prepared by either dissolving the unpurified cyclization reaction with water or by dissolving purified and lyophilized peptide in water. The bicyclic peptides were serially diluted two-fold using assay buffer. Sigmoidal curves were fitted to the data using the following dose response equation (1), wherein x = peptide concentration, y = % protease activity, and p = Hill slope. IC50 values were derived from the fitted curve.
(§5) The inhibition constants (Ki) were calculated according to the equation of Cheng and Prusoff, Ki = IC50/(1+([S]0/Km), wherein IC50 is the functional strength of the inhibitor, [S]0 is the total substrate concentration, and Km is the Michaelis-Menten constant. […]
(§6) For testing the specificity of the bicyclic peptides, the following final concentrations of human serine proteases were used: tPA (Molecular Innovations) 7.5 nM, uPA (Molecular Innovations) 1.5 nM, factor XIa (Innovative Research) 6 nM, plasma kallikrein (Innovative Research) 0.25 nM, thrombin (Molecular Innovations) 1 nM, plasmin (Molecular Innovations) 2.5 nM, trypsin (Molecular Innovations) 0.05 nM, factor VIIa (Haematologic Technologies) 50 nM, factor Xa […]
(§7) (Haematologic Technologies) 6 nM, and activated protein C (APC) 5 nM. Two-fold dilutions of the peptide were prepared that ranged from 0.04 to 40 µM. The following fluorogenic substrates were used at a final concentration of 50 µM: Z-Phe-Arg-AMC (Bachem) for plasma kallikrein; Boc-Phe-Ser-Arg-AMC (Bachem) for factor XIa; Z-Gly-Gly-Arg-AMC (Bachem) for tPA, uPA, thrombin, and trypsin; H-D-Val-Leu-Lys-AMC (Bachem) for plasmin; and D-Phe-Pro-Arg-ANSNH-C4H9 (Haematologic Technologies) for FVIIa and FXa. For APC, the chromogenic substrate pyroGlu-Pro-Arg-pNA (S2366) was used at a concentration of 400 µM. […]

factor VIIa = molecular target: T2, factor VIIa (Homo sapiens, UniProt P08709); experiment: Specificity profiling, residual protease activity; format: biochemical
T2 construct: (Molecular Innovations) 0.05 nM, factor VIIa (Haematologic Technologies) 50 nM, factor Xa; purchased Haematologic Technologies
T2 sequence (P08709 213-466 limits assumed): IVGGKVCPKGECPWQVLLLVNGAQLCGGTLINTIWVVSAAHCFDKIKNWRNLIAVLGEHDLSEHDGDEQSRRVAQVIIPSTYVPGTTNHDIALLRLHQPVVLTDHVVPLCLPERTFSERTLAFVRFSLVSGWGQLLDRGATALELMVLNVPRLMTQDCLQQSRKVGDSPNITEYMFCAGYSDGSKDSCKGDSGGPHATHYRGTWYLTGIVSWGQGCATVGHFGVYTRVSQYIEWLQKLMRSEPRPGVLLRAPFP
T2 sequence (P08709 61-212 limits assumed): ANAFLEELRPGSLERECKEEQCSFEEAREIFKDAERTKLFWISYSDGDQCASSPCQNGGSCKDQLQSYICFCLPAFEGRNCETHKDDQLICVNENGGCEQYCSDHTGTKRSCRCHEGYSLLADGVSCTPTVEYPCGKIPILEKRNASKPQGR
Procedure: as §1, §2, §3, §4, §5, §6, §7

[1] = inhibitor 40000 nM (40 µM), 40 µM

## CC(C)C[C@@H]1NC(=O)[C@H](CCC(N)=O)NC(=O)[C@H](Cc2c[nH]cn2)NC(=O)[C@@H]2CSCCC(=O)N3CN(CN(C3)C(=O)CCSC[C@H](NC(=O)[C@@H](CO)NC(=O)[C@H](N)CCCNC(=N)N)C(=O)N[C@@H](Cc3ccc(F)cc3)C(=O)N[C@@H](CCCNC(=N)N)C(=O)N[C@@H](CC(C)C)C(=O)N3CCC[C@H]3C(=O)N2)C(=O)CCSC[C@@H](C(N)=O)NC(=O)C[C@H](CCCNC(=N)N)NC1=O [FXII900] (H-[dR][dS]C[Phe(4-F)]RLPCHQL[β3hR]C-NH2; linker 3-8-13 via TATA)
tPA
  Ki: > 40 µM
tPA; inhibitor 39.0625 nM
  remaining activity at 0.0390625 µM: 95.1%
tPA; inhibitor 39.0625 nM, 0.0390625 µM
  Residual activity of tPa: 93.3208%
tPA; inhibitor 78.125 nM
  remaining activity at 0.078125 µM: 95.9%
tPA; inhibitor 78.125 nM, 0.078125 µM
  Residual activity of tPa: 101.687%
tPA; inhibitor 156.25 nM
  remaining activity at 0.15625 µM: 98.8%
tPA; inhibitor 156.25 nM, 0.15625 µM
  Residual activity of tPa: 101.694%
tPA; inhibitor 312.5 nM
  remaining activity at 0.3125 µM: 97.2%
tPA; inhibitor 312.5 nM, 0.3125 µM
  Residual activity of tPa: 101.741%
tPA; inhibitor 625 nM
  remaining activity at 0.625 µM: 95%
tPA; inhibitor 625 nM, 0.625 µM
  Residual activity of tPa: 94.8368%
tPA; inhibitor 1250 nM
  remaining activity at 1.25 µM: 101%
tPA; inhibitor 1250 nM, 1.25 µM
  Residual activity of tPa: 102.859%
tPA; inhibitor 2500 nM
  remaining activity at […]: 100%
tPA; inhibitor 2500 nM, […]
  Residual activity of tPa: 101.452%
tPA; inhibitor 5000 nM
  remaining activity at 5 µM: 87.2%
tPA; inhibitor 5000 nM, 5 µM
  Residual activity of tPa: 93.856%
tPA; inhibitor 10000 nM, 10 µM
  Residual activity of tPa: 102.407% and 77.7753%
tPA; inhibitor 20000 nM
  remaining activity at 20 µM: 89.2%
tPA; inhibitor 20000 nM, 20 µM
  Residual activity of tPa: 97.2498%
tPA; inhibitor 40000 nM (40 µM)
  remaining activity at 40 µM: 97%
tPA; [1]
  Residual activity of tPa: 94.4809% and 101.833%
Factor VIIa; inhibitor 5000 nM, 5 µM
  Residual activity of FVIIa: 109.299%
Factor VIIa; inhibitor 5000 nM, read-out: Residual activity of FVIIa
  remaining activity at 5 µM: 108%
Factor VIIa; inhibitor 10000 nM, 10 µM
  Residual activity of FVIIa: 109.026%
Factor VIIa; inhibitor 10000 nM, read-out: Residual activity of FVIIa
  remaining activity at 10 µM: 107%
Factor VIIa; inhibitor 20000 nM, 20 µM
  Residual activity of FVIIa: 101.426%
Factor VIIa; inhibitor 20000 nM, read-out: Residual activity of FVIIa
  remaining activity at 20 µM: 101%
Factor VIIa; [1]
  Residual activity of FVIIa: 102.615% and 96.13%
Factor VIIa; inhibitor 40000 nM (40 µM), read-out: Residual activity of FVIIa
  remaining activity at 40 µM: 97.1%
Factor VIIa; read-out: Ki FVIIa
  Ki: > 40 µM
